# Measured values as given in US20260258064A1 (SIRONAX LTD., priority 2023, published 2026).
# Biological target: T1, SARM1 (50-724) (Homo sapiens, UniProt Q6SZW1)
# T1 construct: Purified SARM1 (50-724) with a final concentration of 2 nM was pre-incubated with a test compound
# T1 sequence (Q6SZW1 50-724): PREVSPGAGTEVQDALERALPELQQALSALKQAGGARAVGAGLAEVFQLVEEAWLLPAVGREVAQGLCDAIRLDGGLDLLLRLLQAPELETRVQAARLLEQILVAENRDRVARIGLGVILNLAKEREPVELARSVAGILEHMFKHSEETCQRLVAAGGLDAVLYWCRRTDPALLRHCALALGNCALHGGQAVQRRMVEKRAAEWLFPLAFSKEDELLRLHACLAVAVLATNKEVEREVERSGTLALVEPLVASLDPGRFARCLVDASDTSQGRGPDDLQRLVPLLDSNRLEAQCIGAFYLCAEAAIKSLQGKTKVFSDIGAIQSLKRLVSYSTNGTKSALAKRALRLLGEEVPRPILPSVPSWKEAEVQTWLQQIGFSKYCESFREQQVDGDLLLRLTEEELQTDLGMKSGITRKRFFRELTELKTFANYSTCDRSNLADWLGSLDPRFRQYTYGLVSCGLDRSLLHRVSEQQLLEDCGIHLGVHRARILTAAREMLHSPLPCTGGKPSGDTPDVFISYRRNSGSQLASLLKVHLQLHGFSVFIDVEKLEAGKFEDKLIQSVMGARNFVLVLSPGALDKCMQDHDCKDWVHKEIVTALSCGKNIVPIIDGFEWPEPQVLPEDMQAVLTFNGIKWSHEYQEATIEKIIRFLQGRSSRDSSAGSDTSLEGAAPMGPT
# Assay: SARM1 (50-724) enzymatic assay (LC-MS/MS)
# Type: biochemical
# Settings: Purified SARM1 (50-724) 2 nM, NMN as activator, NAD+ as substrate, 1 h at room temperature, read-out: IC50 (SARM1 inhibitory activity)
# Protocol: An enzymatic assay was performed in a 384-well plate using Dulbecco's phosphate-buffered saline (PBS) as the reaction buffer. Purified SARM1 (50-724) with a final concentration of 2 nM was pre-incubated with a test compound at […] final assay concentration for 15 min at room temperature. The reaction was initiated by adding a mixture of […] nicotinamide mononucleotide (NMN) as activator and […] NAD^+ as substrate. After 1 h of incubation at room temperature, the reaction was terminated with 10 times volume of 70% acetonitrile, and then centrifuged at 3800 rpm for 10 min. The samples were analyzed using LC-MS/MS after diluted to a proper concentration by 10 mM ammonium acetate (pH 9.75).
# In Table 2, activity is provided as follows: A: IC50≤100 nM; B: 100 nM<IC50≤500 nM; C: 500 nM<IC50≤1000 nM; D: IC50>1000 nM.
row,IC50 [nM],SMILES
1,100 to 500,"CN1CCC(C)(c2ccc3[nH]c(-c4nncn4-c4ccc(F)c(F)c4Cl)nc3c2)C1=O (stereo not shown) [Compound 165, 3-(2-(4-(2-chloro-3,4-difluorophenyl)-4H-1,2,4-triazol-3-yl)-1H-benzo[d]imidazol-5-yl)-1,3-dimethylpyrrolidin-2-one]"
2,≤ 100,"CC(C#N)c1ccc2[nH]c(-c3nncn3-c3ccc(F)c(F)c3Cl)nc2c1 (stereo not shown) [Compound 152, 2-(2-(4-(2-chloro-3,4-difluorophenyl)-4H-1,2,4-triazol-3-yl)-1H-benzo[d]imidazol-5-yl)propanenitrile]"
3,≤ 100,CCOC(=O)C1(c2ccc3[nH]c(-c4nncn4-c4cccc(Cl)c4Cl)nc3c2)CCC1 [Example 129]
4,≤ 100,"CN(CCCC(N)=O)c1cc(F)c2[nH]c(-c3nncn3-c3cnccc3C(F)(F)F)nc2c1 [Compound 455, 4-((4-fluoro-2-(4-(4-(trifluoromethyl)pyridin-3-yl)-4H-1,2,4-triazol-3-yl)-1H-benzo[d]imidazol-6-yl)(methyl)amino)butanamide]"
5,≤ 100,OC1CC(OCc2nnc(-c3nc4cc(C(F)(F)F)ccc4[nH]3)n2-c2cccc(Cl)c2Cl)C1 (stereo not shown) [Example 127]
6,100 to 500,"FC(F)(F)c1ccncc1-n1cnnc1-c1nc2cc(C3CCOCC3)ccc2[nH]1 [Compound 352, 5-tetrahydropyran-4-yl-2-[4-[4-(trifluoromethyl)-3-pyridyl]-1,2,4-triazol-3-yl]-1H-benzimidazole]"
7,≤ 100,"CS(=O)(=O)c1c(-c2nncn2-c2cccc(F)c2Cl)[nH]c2ccc(C(F)(F)F)cc12 [Compound 346, 2-[4-(2-chloro-3-fluorophenyl)-1,2,4-triazol-3-yl]-3-methanesulfonyl-5-(trifluoromethyl)-1H-indole]"
8,≤ 100,"CS(=O)(=O)NCc1nnc(-c2nc3cc(C(F)(F)F)ccc3[nH]2)n1-c1cccc(Cl)c1Cl [Compound 139, N-((4-(2,3-dichlorophenyl)-5-(5-(trifluoromethyl)-1H-benzo[d]imidazol-2-yl)-4H-1,2,4-triazol-3-yl)methyl)methanesulfonamide]"
9,≤ 100,"CS(=O)(=O)CCc1nnc(-c2nc3cc(C(F)(F)F)ccc3[nH]2)n1-c1cccc(Cl)c1Cl [Compound 138, 2-(4-(2,3-dichlorophenyl)-5-(2-(methylsulfonyl)ethyl)-4H-1,2,4-triazol-3-yl)-5-(trifluoromethyl)-1H-benzo[d]imidazole]"
10,≤ 100,"FC(F)(F)Oc1cnc(-n2cccn2)cc1-n1cnnc1-c1nc2cc(C(F)(F)F)ccc2[nH]1 [Compound 264, 2-(4-(2-(1H-pyrazol-1-yl)-5-(trifluoromethoxy)pyridin-4-yl)-4H-1,2,4-triazol-3-yl)-5-(trifluoromethyl)-1H-benzo[d]imidazole]"
11,100 to 500,"N#CC1(c2cccc3[nH]c(-c4nncn4-c4cnccc4C(F)(F)F)nc23)CC1 [Compound 442, 1-(2-(4-(4-(trifluoromethyl)pyridin-3-yl)-4H-1,2,4-triazol-3-yl)-1H-benzo[d]imidazol-4-yl)cyclopropane-1-carbonitrile]"
12,≤ 100,OCCOc1cc(-c2nc3cc(C(F)(F)F)ccc3[nH]2)c(-c2cccc(Cl)c2Cl)cn1 [Example 65]

# Further lines, the molecule ahead of its results:
row,SMILES,IC50 [nM]
1,"CC1CC(c2cc(F)c3[nH]c(-c4nncn4-c4cnccc4C(F)(F)F)nc3c2)CO1 (stereo not shown) [Compound 423, 7-fluoro-5-(5-methyltetrahydrofuran-3-yl)-2-[4-[4-(trifluoromethyl)-3-pyridyl]-1,2,4-triazol-3-yl]-1H-benzimidazole]",≤ 100
2,"FC(F)(F)Oc1ccc(OC2CC2)cc1-n1cnnc1-c1nc2cc(C(F)(F)F)ccc2[nH]1 [Compound 275, 2-(4-(5-cyclopropoxy-2-(trifluoromethoxy)phenyl)-4H-1,2,4-triazol-3-yl)-5-(trifluoromethyl)-1H-benzo[d]imidazole]",≤ 100
3,"FC(F)(F)Oc1cnc(C2CC2)cc1-n1cnnc1-c1nc2cc(C(F)(F)F)ccc2[nH]1 [Compound 221, 2-(4-(2-cyclopropyl-5-(trifluoromethoxy)pyridin-4-yl)-4H-1,2,4-triazol-3-yl)-5-(trifluoromethyl)-1H-benzo[d]imidazole]",≤ 100
4,"Fc1cc(OCC(F)F)cc2nc(-c3nncn3-c3cnccc3C(F)(F)F)[nH]c12 [Compound 331, 5-(2,2-difluoroethoxy)-7-fluoro-2-(4-(4-(trifluoromethyl)pyridin-3-yl)-4H-1,2,4-triazol-3-yl)-1H-benzo[d]imidazole]",≤ 100
5,"FC(F)(F)c1ccncc1-n1cnnc1-c1nc2cc(N3C4COCC3C4)ccc2[nH]1 [Compound 342, 6-[2-[4-[4-(trifluoromethyl)-3-pyridyl]-1,2,4-triazol-3-yl]-1H-benzimidazol-5-yl]-3-oxa-6-azabicyclo[3.1.1]heptane]",500 to 1000
6,FC(F)(F)Oc1cnccc1-n1cnnc1-c1nc2cc(C(F)(F)F)ccc2[nH]1 [Compound 190],≤ 100
7,O=c1ccc(-c2cccc(Cl)c2Cl)c(-c2nc3cc(C(F)(F)F)ccc3[nH]2)[nH]1 [Example 37],> 1000
8,FC(F)C1(c2ccc3[nH]c(-c4nncn4-c4ccncc4OC(F)(F)F)nc3c2)CC1 [Compound 237],≤ 100
9,"C[S+]([O-])Cc1nnc(-c2nc3cc(C(F)(F)F)ccc3[nH]2)n1-c1cccc(Cl)c1Cl (single isomer, unassigned) [Compound 146, 2-(4-(2,3-dichlorophenyl)-5-((methylsulfinyl)methyl)-4H-1,2,4-triazol-3-yl)-5-(trifluoromethyl)-1H-benzo[d]imidazole]",≤ 100
10,FC(F)(F)c1ccc2[nH]c(-c3c[nH]nc3-c3cccc(Cl)c3Cl)nc2c1 [Example 61],500 to 1000
11,"[2H]c1nnc(-c2nc3c(F)c(C4([2H])CC4)cc(F)c3[nH]2)n1-c1cnccc1C(F)(F)F [Compound 394, 5-(cyclopropyl-1-d)-4,7-difluoro-2-(4-(4-(trifluoromethyl)pyridin-3-yl)-4H-1,2,4-triazol-3-yl-5-d)-1H-benzo[d]imidazole]",≤ 100
12,"Clc1cccc(-n2cnnc2-c2nc3cc(C4CCCO4)ccc3[nH]2)c1Cl (stereo not shown) [Compound 136, 2-(4-(2,3-dichlorophenyl)-4H-1,2,4-triazol-3-yl)-5-(tetrahydrofuran-2-yl)-1H-benzo[d]imidazole]",≤ 100
13,"FC(F)(F)c1ccc2[nH]c(-c3cccn3-c3nnccc3C(F)(F)F)nc2c1 [Compound 305, 5-(Trifluoromethyl)-2-(1-(4-(trifluoromethyl)pyridazin-3-yl)-1H-pyrrol-2-yl)-1H-benzo[d]imidazole]",≤ 100
14,"FC(F)(F)c1ccc2[nH]c(-c3nncn3-c3cnccc3C(F)(F)F)c(C3CC3)c2c1 [Compound 366, 3-cyclopropyl-5-(trifluoromethyl)-2-(4-(4-(trifluoromethyl)pyridin-3-yl)-4H-1,2,4-triazol-3-yl)-1H-indole]",≤ 100
15,"Cc1nccc(C(F)(F)F)c1-n1cnnc1-c1nc2cc(C(F)(F)F)ccc2[nH]1 [Compound 246, 2-(4-(2-methyl-4-(trifluoromethyl)pyridin-3-yl)-4H-1,2,4-triazol-3-yl)-5-(trifluoromethyl)-1H-benzo[d]imidazole]",≤ 100
16,"[2H]c1nnc(-c2nc3cc(C4([2H])CC4)cc(F)c3[nH]2)n1-c1cnccc1C(F)(F)F [Compound 359, 5-(cyclopropyl-1-d)-7-fluoro-2-(4-(4-(trifluoromethyl)pyridin-3-yl)-4H-1,2,4-triazol-3-yl-5-d)-1H-benzo[d]imidazole]",≤ 100
